# Data as given in patent publication US20100015620A1, “CANCER-LINKED GENES AS BIOMARKERS TO MONITOR RESPONSE TO IMPDH INHIBITORS” (priority 2006, published 2010).
# Columns and labels:
# [1] = system: HT-29, K-562 and KG-1 cells; test: GTP pool depletion and repletion, and cell cycle block, in cell lines; format: cell-based, human
# Experimental: The present identification of relevant biomarkers was cognizant of the need to capture genes that move with respect to relevant clinical experiments. For example, IMPDH inhibition results in the cell cycle halting at the G1 border. […] Concentration depletion of GTP was measured in HT-29, K-562 and KG-1 cells. DMSO was used as control. […] For example, PDE7A and RRM2 were deregulated only on GTP repletion (which occurred within 90 minutes after drug removal). Thus, the present experiments have correlated gene involvement with the real biological endpoint for IMPDH inhibition.
# both IMPDH isozymes = details: cited from earlier work
# [2] = system: human peripheral lymphocytes stimulated with either B-cell or T-cell mitogens; details: cited from earlier work
smiles,measurement,setting,value
CC[C@H](CC#N)OC(=O)N[C@@H](C)c1cccc(NC(=O)Nc2ccc(-c3cnco3)c(OC)c2)c1 [AVN-944],Effect on GTP pools,"[1]; HT-29, K-562 and KG-1 cells, DMSO control",depleted GTP pools
same,Time to GTP repletion after drug removal,[1]; after drug removal,≤ 90 min
same,Effect on cell cycle,[1]; at concentrations of AVN-944 that depleted GTP pools,S phase cell cycle block
same,Ki,both IMPDH isozymes,7 to 10 nM
same,IC50,[2],20 to 100 nM
